Laboratory results published in ChEMBL document CHEMBL1136494, “Potent anti-metastatic activity of dimeric sesquiterpene thioalkaloids from the rhizome of Nuphar pumilum” (2003).

What was measured:
Assay type in all cases: functional
Details in all cases: Mus musculus
B16 [1] = test: Inhibition of invasion of B16 melanoma cells by 0.1 uM concentration of the compound
B16 [2] = test: Inhibition of invasion of B16 melanoma cells by 100 uM concentration of the compound
B16 [3] = test: Inhibition of invasion of B16 melanoma cells by 10 uM concentration of the compound
B16 [4] = test: Inhibition of invasion of B16 melanoma cells by 0.01 uM concentration of the compound
B16 [5] = test: Inhibition of invasion of B16 melanoma cells by 1 uM concentration of the compound
B16 [6] = test: Inhibition of lung metastasis of B16 melanoma cells in mice after 20 mg/kg po administration of the compound

SMILES | inhibition at 0.1 µM (B16 [1]) [%] | inhibition at 100 µM (B16 [2]) [%] | inhibition at 10 µM (B16 [3]) [%] | inhibition at 0.01 µM (B16 [4]) [%] | inhibition at 1 µM (B16 [5]) [%] | inhibition in vivo at 20 mg/kg (B16 [6]) [%]
C[C@@H]1CC[C@@H](c2ccoc2)N2[C@H]1CC[C@@]1(CS[C@@]3(CC[C@H]4[C@H](C)CC[C@@H](c5ccoc5)N4[C@@H]3O)C1)[C@H]2O | 43.1 | 86.6 | 83.2 | 40.3 | 68.5 | –
C[C@@H]1CC[C@@H](c2ccoc2)N2C[C@@]3(CC[C@@H]12)C[S+]([O-])[C@@]1(CC[C@H]2[C@H](C)CC[C@@H](c4ccoc4)N2C1)C3 (stereo partly drawn) | 16.9 | 32.5 | 42.2 | – | 38.3 | –
C[C@@H]1CC[C@@H](c2ccoc2)N2C[C@@]3(CC[C@@H]12)CS[C@@]1(CC[C@H]2[C@H](C)CC[C@@H](c4ccoc4)N2[C@@H]1O)C3 | 57.5 | 86.8 | 84.8 | 50.9 | 66.5 | 94
COc1cc(C=CC(=O)CC(=O)/C=C/c2ccc(O)c(OC)c2)ccc1O [CURCUMIN] | – | – | – | – | – | 87
C[C@@H]1CC[C@@H](c2ccoc2)N2C[C@]3(CC[C@@H]12)CS[C@]1(CC[C@H]2[C@H](C)CC[C@@H](c4ccoc4)N2C1)C3 [NEOTHIOBINUPHARIDINE] | 11.9 | 28.3 | 33.2 | – | 18.9 | –
C[C@@H]1CC[C@H]2[C@H](C)CC[C@@H](c3ccoc3)N2C1 [(-)-7-EPI-DEOXYNUPHARIDINE] | 5.1 | 23 | 20.9 | – | 25.3 | –
C[C@@H]1CC[C@@H](c2ccoc2)N2C[C@](C)(O)CC[C@@H]12 [NUPHAROLUTINE] | 25.5 | -0.6 | 16.8 | – | 1.7 | –
C[C@H]1CC[C@H]2[C@H](C)CC[C@@H](c3ccoc3)N2C1 | -5.1 | 19.1 | 28.5 | – | 14 | –
C[C@@H]1CC[C@@H](c2ccoc2)N2C[C@@]3(CC[C@@H]12)CS[C@@]1(CC[C@H]2[C@H](C)CC[C@@H](c4ccoc4)N2C1)C3 [THIOBINUPHARIDINE] | 5.2 | 22.7 | 15.6 | – | 9.7 | –
C[C@@H]1CC[C@@H](c2ccoc2)N2C[C@]3(CC[C@@H]12)C[S+]([O-])[C@]1(CC[C@H]2[C@H](C)CC[C@@H](c4ccoc4)N2C1)C3 (stereo partly drawn) | 10.6 | 15.7 | 12.8 | – | 18.5 | –
C[C@@H]1CC[C@@H](c2ccoc2)N2C[C@@]3(CC[C@@H]12)C[S+]([O-])[C@]1(CC[C@H]2[C@H](C)CC[C@@H](c4ccoc4)N2C1)C3 (stereo partly drawn) | -8.1 | 0 | 9.2 | – | 10.2 | –
C[C@@H]1CC[C@@H](c2ccoc2)N2C[C@@]3(CC[C@@H]12)CS[C@]1(CC[C@H]2[C@H](C)CC[C@@H](c4ccoc4)N2[C@@H]1O)C3 [6-HYDROXYTHIONUPHLUTINE B] | 31.6 | 47.1 | 61.4 | 5.9 | 62.7 | –
C[C@H]1CC[C@H]2[C@H](C)CC[C@@H](c3ccoc3)[N@@+]2([O-])C1 | 19.6 | 47.2 | 41.4 | – | 34.7 | –
